Measurements reported in US5948782A, “Pharmaceutical composition containing quinoline and quinazoline derivatives and novel compounds therefor” (Takeda Chemical, priority 1992, dated 1999).

What was measured:
IL-1β = assay: Anti-IL-1 activity (extracellular substrates of rat cartilage cells); format: cell-based; details: 72 h, IL-1β 0.2 ng/ml, 3 days, read-out: IL-1 inhibitory activity (%)
Protocol: Rat cartilage cells were prepared according to the known method [Fujio Suzuki et al., Sin Seikagaku Jikken Kohza, 18, p.871-875 (1990)] and cultivated in Dulbecco's Medium containing 10% fetal bovine serum. After 8 days, various concentrations of a test drug and IL-1β (0.2 ng/ml) were added, and the cells were cultivated for additional 3 days. The amount of extracellular substrates thus produced was determined.
Although IL-1β inhibits the synthesis of extracellular substrates of cartilage cells, addition of the drug inhibits the IL-1 activity and the amount of extracellular substrates synthesized was recovered.

[1] = test system: mouse phenylquinone writhing; assay: Analgesic Activity in Mice (phenylquinone writhing model); format: in vivo; details: Slc:ICR mice, 50 mg/kg orally, 20 minutes
Protocol: Analgesic Activity in Mice
A drug (50 mg/kg) suspended in 5% acacia was administered orally to Slc:ICR mice (male, 4 weeks old). After 30 minutes, a 0.02% phenylquinone solution (0.1 ml/[…]) in 5% ethanol was administered intraperitoneally. Writhing and stretching reactions for 20 minutes after the injection were calculated for each mouse to evaluate analgesic activity of the test drug [Siegmund, E. et al.; Proc. Soc. Exp. Biol. Med., 95, 729 (1957)].

[2] = test system: Antigen-responsive T cell; assay: Antigen-Responsive T Cell Growth Inhibitory Activity (PPD-stimulated 3H-Tdr incorporation); format: cell-based, Lewis rats; details: PPD 2 μg/ml, Lewis rat T cells, read-out: Antigen-responsive T cell growth inhibitory rate (%)
Protocol: Antigen-Responsive T Cell Growth Inhibitory Activity
According to the method of Test Example 1, adjuvant arthritis was induced in Lewis rats (male, 7 weeks old). After 14 days, lymphonodi inguinales were excised. Then, a single-cell suspension was prepared by using RPMI-1640 medium containing 5% fetal bovine serum and then incubated at 37° C. for 1 hour in a nylon wool column. The cells were eluted from the column with the same medium. The non-adsorptive cell-fraction was used as T cells.
On the other hand, spleen cells were taken out from unsensitized Lewis rats (male, 8 to 9 weeks old) and irradiated with soft X-rays (20,000 R). To the spleen cells (1×10^5 cells/well) were added the above T cells (5×10^5 cells/well), PPD (Purified Protein Derivatives; final concentration: 2 μg/ml) and 2% Lewis rat serum (treated at 56° C. for 30 minutes). The mixture was incubated at 37° C. for 72 hours in a 5% carbonic acid incubator. Further, ^3 H-Tdr (0.5 μCi/well) was added followed by incubation for 24 hours. The cells were recovered, and the radioactivity of ^3 H-Tdr incorporated into the cells was determined. The test drug was added to the cell suspension just before the addition of PPD, and effects on incorporation of ^3 H-Tdr into the cells were observed.

[3] = test system: Rat Carrageenin Paw Edema; assay: Rat Carrageenin Paw Edema Inhibitory Activity; format: in vivo; details: Jcl:SD rats, 50 mg/kg orally, 3 hours after carrageenin
Protocol: Rat Carrageenin Paw Edema Inhibitory Activity
The volume of a planter part of a right hind leg of Jcl:SD rats (male, 6 weeks old) was measured, and then suspension of a test drug (50 mg/kg) in 5% acacia was administered orally. Then water was administered additionally so that the total amount of administered liquid became 5 ml/rat. After 1 hour, a suspension (0.05 ml) containing 1% carrageenin in physiological saline was injected intradermally into the plantar to induce swelling [Winter, C. A. et al; Proc. Soc. Exp. Biol. Med., 111, 544 (1962)]. The volume of the right hind leg was measured again 3 hours after the carrageenin injection, and swelling inhibitory rate was calculated from the difference in the volumes before and after the injection.

mice = assay: Oral toxicity in mice; format: in vivo; details: 300 mg/kg administered orally to mice
Protocol: The compounds of the present invention have low toxicity. For example, when 300 mg/kg of the compounds prepared in Examples 36, 45, 47, 54 and 64 were administered orally to mice, no mice died. Therefore, the compounds of the present invention are useful as an anti-inflammatory agent, particularly an agent for treating arthritis producing inflammatory symptoms, in humans and other mammals.

## CCOC(=O)c1c(CSc2nc3ccccc3c(=O)[nH]2)nc2cc(OC)c(OC)cc2c1-c1ccc(OC)c(OC)c1 [Example 64, ethyl 6,7-dimethoxy-4-(3,4-dimethoxyphenyl)-2-[(3,4-dihydro-4-oxoquinazolin-2-yl)thiomethyl]quinoline-3-carboxylate]
IL-1β; 1 μM
  inhibition at 1 µM: 23%
IL-1β; 10 μM
  inhibition at 10 µM: 50%
[1]
  Inhibitory rate (%): 27%
[2]; 1 μM
  inhibition at 1 µM: 53%
[2]; 10 μM
  inhibition at 10 µM: 78%
[3]
  Swelling inhibitory rate (%): 36%
mice
  mortality: no mice died
